Assays:
[1] = target: T1, SOS1 catalytic domain (residues 564-1049) (Homo sapiens, UniProt Q07889); experiment: Potency Assay: binding affinity to SOS1 using Surface Plasmon Resonance (SPR); set-up: SOS1 catalytic domain (residues 564-1049) immobilized on a sensor chip; details: immobilized SOS1 catalytic domain (residues 564-1049), read-out: SOS1 SPR Equilibrium Kd
T1 sequence (Q07889 564-1049): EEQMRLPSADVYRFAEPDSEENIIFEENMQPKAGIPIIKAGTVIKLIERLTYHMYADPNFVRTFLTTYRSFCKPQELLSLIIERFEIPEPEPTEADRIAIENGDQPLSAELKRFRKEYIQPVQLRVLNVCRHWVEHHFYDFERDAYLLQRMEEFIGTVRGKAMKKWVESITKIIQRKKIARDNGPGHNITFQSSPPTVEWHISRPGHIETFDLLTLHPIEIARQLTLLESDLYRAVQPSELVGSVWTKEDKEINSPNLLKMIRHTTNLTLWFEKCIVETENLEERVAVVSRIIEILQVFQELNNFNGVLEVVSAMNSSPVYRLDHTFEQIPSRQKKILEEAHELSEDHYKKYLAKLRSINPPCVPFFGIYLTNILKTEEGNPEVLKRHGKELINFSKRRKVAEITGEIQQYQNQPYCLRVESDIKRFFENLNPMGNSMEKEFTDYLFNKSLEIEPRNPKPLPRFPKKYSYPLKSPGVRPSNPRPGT
Experimental: Data was reported as equilibrium dissociation constant (Kd) values.
Using a GE Biacore 8K SPR instrument, avi-tagged SOS1 catalytic domain protein was immobilized to a level of approximately 6000 response units (RU) on a streptavidin-coated SPR sensor chip in assay buffer containing 0.01 M HEPES, 0.15 M NaCl and 0.05% v/v Surfactant P20. […] For each test compound, a separate 0 μM sample was generated for use during subsequent double reference subtraction. Serially for each test compound, individual dilution samples were flowed over the immobilized SOS1 protein at a flow rate of 50 μL/minute to monitor the association with SOS1. Dissociation of bound test compound from the SOS1 protein was immediately monitored by flowing assay buffer over the sensor surface and monitoring the decrease in binding signal back to the baseline level seen in the absence of compound. This was repeated for all compound dilutions in each series. The binding level response for each test compound concentration was noted immediately prior to the end of the association phase, and a secondary plot generated showing binding response level versus test compound concentration generated for each compound dilution series.

[2] = test system: PC-9 cells (EGFR Ex19Del); experiment: Potency Assay: pERK (SOS1 pERK IC50 Assay, AlphaLISA SureFire Ultra p-ERK1/2); type: cell-based; details: Homo sapiens; PC-9 cells (EGFR Ex19Del), 1 hour incubation, AlphaLISA p-ERK1/2; read-out: SOS1 pERK IC50
Method in brief: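 PC-9 (EGFR Ex19Del) cells plated overnight, then treated 1 h at 37° C. with 10-point 3-fold dilutions (top 10 μM final) in duplicate. Lysate pERK1/2 measured by AlphaLISA SureFire Ultra; IC50 from 4-parameter sigmoidal fit.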

[3] = target: T1, SOS1 catalytic domain (residues 564-1049); experiment: Mode of Action Assay: inhibition of SOS1 nucleotide exchange activity (SOS1 TR-FRET IC50 Assay)

Row | Kd [1] | IC50 [2] | IC50 [3] | Compound
1 | < 400 nM | < 1000 nM | < 1000 nM | C[C@@H](Nc1nc(Cl)nc2c1C[C@H](N1CCOCC1)CC2)c1cc(N)cc(C(F)(F)F)c1 (single isomer, unassigned) [Example 169]
2 | < 400 nM | < 1000 nM | < 1000 nM | C[C@@H](Nc1nc(Cl)nc2c1C[C@@H](N1CCOCC1)CC2)c1cc(N)cc(C(F)(F)F)c1 (single isomer, unassigned) [Example 170]
3 | < 400 nM | < 1000 nM |  | C[C@@H](Nc1nc(Cl)nc2c1CN(C1CCOCC1)CC2)c1cc(N)cc(C(F)(F)F)c1 [Example 22, N-[(1R)-1-[3-amino-5-(trifluoromethyl)phenyl]ethyl]-2-chloro-6-tetrahydropyran-4-yl-7,8-dihydro-5H-pyrido[4,3-d]pyrimidin-4-amine]
4 | < 400 nM | < 1000 nM | < 1000 nM | C[C@@H](Nc1nc(Cl)nc2c1CN(S(=O)(=O)N1CCOCC1)C2)c1cc(N)cc(C(F)(F)F)c1 [Example 24, N-[(1R)-1-[3-amino-5-(trifluoromethyl)phenyl]ethyl]-2-chloro-6-morpholinosulfonyl-5,7-dihydropyrrolo[3,4-d]pyrimidin-4-amine]
5 | < 400 nM | < 1000 nM | < 1000 nM | C[C@@H](Nc1nc(Cl)nc2c1CN(S(=O)(=O)N1CCOCC1)CC2)c1cc(N)cc(C(F)(F)F)c1 [Example 29, N-[(1R)-1-[3-amino-5-(trifluoromethyl)phenyl]ethyl]-2-chloro-6-morpholinosulfonyl-7,8-dihydro-5H-pyrido[4,3-d]pyrimidin-4-amine]
6 | < 400 nM | > 1000 nM | < 1000 nM | C[C@@H](Nc1nc(Cl)nc2c1CN(C1CCOCC1)C2=O)c1cc(N)cc(C(F)(F)F)c1 [Example 30, 4-[[(1R)-1-[3-amino-5-(trifluoromethyl)phenyl]ethyl]amino]-2-chloro-6-tetrahydropyran-4-yl-5H-pyrrolo[3,4-d]pyrimidin-7-one]
7 | < 400 nM | > 1000 nM | > 1000 nM | CNCc1ccccc1-c1cnc(C(C)Nc2nc(Cl)nc3c2CN(C(=O)N2CCOCC2)C3)s1 (stereo not drawn) [Example 31]
8 | < 400 nM | < 1000 nM |  | CNCc1ccccc1-c1cccc(C(C)Nc2nc(Cl)nc3c2CN(C(=O)N2CCOCC2)C3)c1 (stereo not drawn) [Example 32, [2-chloro-4-[1-[3-[2-(methylaminomethyl)phenyl]phenyl]ethylamino]-5,7-dihydropyrrolo[3,4-d]pyrimidin-6-yl]-morpholino-methanone]
9 | > 400 nM | > 1000 nM |  | C[C@@H](Nc1nnc(Cl)c2c1CN(C(=O)N1CCOCC1)C2)c1cc(N)cc(C(F)(F)F)c1 [Example 35, [1-[[(1R)-1-[3-amino-5-(trifluoromethyl)phenyl]ethyl]amino]-4-chloro-5,7-dihydropyrrolo[3,4-d]pyridazin-6-yl]-morpholino-methanone]
10 | > 400 nM | > 1000 nM | > 1000 nM | Cc1nc2c(c(N[C@H](C)c3cc(N)cc(C(F)(F)F)c3)n1)CN(S(=O)(=O)c1ccc(N)nc1)C2 [Example 36, (R)—N-(1-(3-amino-5-(trifluoromethyl)phenyl)ethyl)-6-((6-aminopyridin-3-yl)sulfonyl)-2-methyl-6,7-dihydro-5H-pyrrolo[3,4-d]pyrimidin-4-amine]
11 | < 400 nM | < 1000 nM | < 1000 nM | Cc1nc2c(c(N[C@H](C)c3cc(N)cc(C(F)(F)F)c3)n1)CN(S(=O)(=O)N1CCOCC1)C2 [Example 37, (R)—N-(1-(3-amino-5-(trifluoromethyl)phenyl)ethyl)-2-methyl-6-(morpholinosulfonyl)-6,7-dihydro-5H-pyrrolo[3,4-d]pyrimidin-4-amine]
12 | < 400 nM | < 1000 nM |  | CNCc1ccccc1-c1ccc(C(C)Nc2nc(Cl)nc3c2CN(C(=O)N2CCOCC2)C3)s1 (stereo not drawn) [Example 39, [2-chloro-4-[1-[5-[2-(methylaminomethyl)phenyl]-2-thienyl]ethylamino]-5,7-dihydropyrrolo[3,4-d]pyrimidin-6-yl]-morpholino-methanone]
13 | > 400 nM | > 1000 nM | > 1000 nM | CC(Nc1nc(Cl)nc2c1CN(C(=O)N1CCOCC1)C2)c1cc(O)cc(C(F)(F)F)c1 (stereo not drawn) [Example 40, [2-chloro-4-[1-[3-hydroxy-5-(trifluoromethyl)phenyl]ethylamino]-5,7-dihydropyrrolo[3,4-d]pyrimidin-6-yl]-morpholino-methanone]
14 | < 400 nM | < 1000 nM |  | CCc1cc(N)cc(C(C)Nc2nc(Cl)nc3c2CN(C(=O)N2CCOCC2)C3)c1 (stereo not drawn) [Example 41, [4-[1-(3-amino-5-ethyl-phenyl)ethylamino]-2-chloro-5,7-dihydropyrrolo[3,4-d]pyrimidin-6-yl]-morpholino-methanone]
15 | > 400 nM | < 1000 nM | < 1000 nM | Cc1nc2c(c(N[C@H](C)c3cc(N)cc(C(F)(F)F)c3)n1)CC(C(=O)N1CCOCC1)C2 (stereo partly drawn) [Example 45, [4-[[(1R)-1-[3-amino-5-(trifluoromethyl)phenyl]ethyl]amino]-2-methyl-6,7-dihydro-5H-cyclopenta[d]pyrimidin-6-yl]-morpholino-methanone]
16 | > 400 nM | > 1000 nM | > 1000 nM | Cc1nc2c(c(N[C@H](C)c3cc(N)cc(C(F)(F)F)c3)n1)CN(S(C)(=O)=O)C2 [Example 46, (R)—N-(1-(3-amino-5-(trifluoromethyl)phenyl)ethyl)-2-methyl-6-(methylsulfonyl)-6,7-dihydro-5H-pyrrolo[3,4-d]pyrimidin-4-amine]
17 | < 400 nM | < 1000 nM | < 1000 nM | Cc1nc2c(c(N[C@H](C)c3cc(N)cc(C(F)(F)F)c3)n1)CN(S(=O)(=O)C1CCOCC1)C2 [Example 47, N-[(1R)-1-[3-amino-5-(trifluoromethyl)phenyl]ethyl]-2-methyl-6-tetrahydropyran-4-ylsulfonyl-5,7-dihydropyrrolo[3,4-d]pyrimidin-4-amine]
18 | < 400 nM | > 1000 nM | < 1000 nM | C[C@@H](Nc1nc(Cl)nc2c1CN(S(=O)(=O)C1CNC1)C2)c1cc(N)cc(C(F)(F)F)c1 [Example 48]
19 | < 400 nM | < 1000 nM | < 1000 nM | C[C@@H](Nc1nc(Cl)nc2c1CN(S(=O)(=O)C1CCCNC1)C2)c1cc(N)cc(C(F)(F)F)c1 (stereo partly drawn) [Example 49]
20 | > 400 nM | > 1000 nM |  | C[C@@H](Nc1nc(Cl)nc2c1CN(c1ncccc1N1CCOCC1)CC2)c1cc(N)cc(C(F)(F)F)c1 [Example 186, (R)—N-(1-(3-amino-5-(trifluoromethyl)phenyl)ethyl)-2-chloro-6-(3-morpholinopyridin-2-yl)-5,6,7,8-tetrahydropyrido[4,3-d]pyrimidin-4-amine]
21 | < 400 nM | > 1000 nM |  | C[C@@H](Nc1nc(Cl)nc2c1CN(S(=O)(=O)C1CCNCC1)C2)c1cc(N)cc(C(F)(F)F)c1 [Example 187]
22 | > 400 nM | > 1000 nM |  | COc1cncc(C(=O)N2CCc3nc(Cl)nc(N[C@H](C)c4cc(N)cc(C(F)(F)F)c4)c3C2)n1 [Example 237]
23 | < 400 nM | < 1000 nM |  | Cc1nc2c(c(N[C@H](C)c3cc(N)cc(C(F)(F)F)c3)n1)CN(C(=O)N1CCN(C)CC1)C2 [Example 351]
24 | < 400 nM | > 1000 nM |  | Cc1nc2c(c(N[C@H](C)c3cc(N)cc(C(F)(F)F)c3)n1)CN(C(=O)N1CC(O)C1)C2 [Example 352]
25 | < 400 nM |  | < 1000 nM | COC1(C(=O)N2Cc3nc(C(F)(F)CN)nc(N[C@H](C)c4cccc(C(F)F)c4F)c3C2)CCOCC1 [Example 488, 2-(2-amino-1,1-difluoroethyl)-N-[(1R)-1-[3-(difluoromethyl)-2-fluorophenyl]ethyl]-6-(4-methoxyoxane-4-carbonyl)-5H,6H,7H-pyrrolo[3,4-d]pyrimidin-4-amine]
26 | < 400 nM |  | < 1000 nM | C[C@@H](Nc1nc(CF)nc2c1CN(C(=O)N1CCOCC1)C2)c1cccc(C(F)F)c1F [Example 540, N-[(1R)-1-[3-(difluoromethyl)-2-fluorophenyl]ethyl]-2-(fluoromethyl)-6-(morpholine-4-carbonyl)-5H,6H,7H-pyrrolo[3,4-d]pyrimidin-4-amine]

Source: US20230096028A1, “BICYCLIC HETEROCYCLYL COMPOUNDS AND USES THEREOF” (Revolution Medicines, Inc., priority 2019, published 2023)
